Values after ≈ are worked out from the molar mass of the structure shown.
Experiments:
Assay type in all cases: cell-based
[1] = system: Staphylococcus aureus TI-1; assay: Antibacterial activity (IC), broth microplate as in Example 4 (Example 5, Table 40); settings: TI1, 18 h
Procedure: (§1) A suitable amount of a sample was dissolved in dimethylsulfoxide (DMSO), and the resultant solution was diluted with the same amount of sterilized distilled water to prepare a bulk sample of 1,000 µg/ml. Mueller-Hinton broth (product of DIFCO) was dispensed into each well of 96-well microplate. Thereafter, the bulk specimen was added to the first well of a row, and successively diluted (10-fold each time) with sterilized distilled water. Separately, a bacterial cell suspension for the test (Staphylococcus aureus 209-P) which had been cultured in the above-mentioned broth overnight at 37°C was inoculated to each well so that the final inoculation amount of 10^6 CFU/ml was attained. The final concentrations of the samples were 100, 10, and 1 µg/ml.
(§2) The antibacterial action was evaluated by the inhibitory concentration (hereinafter abbreviated as IC) at which propagation of the bacteria cultured at 37°C for 18 hours was inhibited. Inhibition was determined by the turbidity of the medium. The expressions "IC≤100", "≤10", and "≤1" indicate that MIC-equivalent values obtained at the succesive […] dilution of the sample are 100-10 µg/ml, 10-1 µg/ml, and not more than 1 µg/ml, respectively. […] (In the subsequent Examples, the same rule applies correspondingly.) Table 39
In a manner similar to that described in Example 4, antibacterial activity of the invention compound was determined. The bacterium used for the test was Staphylococcus aureus TI-1.

[2] = system: Staphylococcus aureus 209-P; assay: Antibacterial activity (IC), Mueller-Hinton broth, 96-well microplate (Example 4, Table 39); settings: 37°C, 18 hours
Procedure: as §1, §2

[3] = system: Pasteurella from fish; assay: Antibacterial activity (IC), agar as in Example 8, media with 1.5% NaCl, 25°C (Example 20, Tables 53-55); settings: Pasteurella piscicida KP94-02
Procedure: as §2
(§3) A suitable amount of a sample was dissolved in dimethylsulfoxide (DMSO), after which the resulting solution was diluted with the same amount of sterilized distilled water to prepare a bulk sample of 1,000 µg/ml. Separately, a bacterial liquid for the test (methicillin-resistant Staphylococcus aureus (MRSA) isolated from humans) which had been cultured in Mueller-Hinton broth (product of DIFCO) was prepared and inoculated to a Mueller-Hinton agar (product of DIFCO) containing the sample so that the final inoculation amount of 10^6 CFU/ml was achieved. The final concentrations of the samples were 100, 10, and 1 µg/ml.
(§4) After culturing at 37°C for 18 hours, the antibacterial activity was evaluated in terms of IC in a manner similar to that described in Example 4.
(§5) In a manner similar to that described in Example 8, antibacterial activity of a variety of ketonitrile derivatives shown in Tables 53-55 was measured. The bacteria used for the test were Enterococcus and Pasteurella from fish. The culture conditions were such that the media contained 1.5% NaCl, and the culture temperature was 25°C.

[4] = system: Enterococcus from fish; assay: as above
Procedure: as §2, §3, §4, §5

[5] = system: Pasteurella multocida (Kobe-6); assay: Antibacterial activity (IC), agar as in Example 8 (Example 17, Table 50); settings: 18 h, origin pig
Procedure: as §2, §3, §4
In a manner similar to that described in Example 8, antibacterial activity of the invention compound was determined. The bacterium used for the test was Pasteurella Kobe-6 (origin: pig, Pasteurella multocida).

[6] = system: Streptococcus aureus (TI-1); assay: Antibacterial activity (IC), agar as in Example 8 (Example 16, Table 49); settings: 18 h
Procedure: as §2, §3, §4
In a manner similar to that described in Example 8, antibacterial activity of the invention compound was determined. The bacterium used for the test was […] aureus (TI-1).

[7] = system: Staphylococcus aureus (209-P); assay: Antibacterial activity (IC), agar as in Example 8 (Example 15, Table 48); settings: 18 h
Procedure: as §2, §3, §4
The bacterium used for the test was Staphylococcus aureus (209-P).

| Structure (SMILES) | MIC [5] [µg/mL] | MIC [6] [µg/mL] | MIC [7] [µg/mL] | also measured |
| --- | --- | --- | --- | --- |
| CC(Oc1ccc(Oc2ncc(C(F)(F)F)cc2Cl)cc1)C(=O)C(C#N)c1ccc(F)cc1F (centres unmarked) [compound 25] | – | – | – | MIC [1]: 10 to 100 µg/mL (≈ 20.1 to 201 µM); MIC [2]: 10 to 100 µg/mL (≈ 20.1 to 201 µM) |
| CC(Oc1ccc(Oc2ncc(C(F)(F)F)cc2Cl)cc1)C(=O)C(C#N)c1cc(F)ccc1F (centres unmarked) [compound 26] | – | – | – | MIC [1]: 10 to 100 µg/mL (≈ 20.1 to 201 µM); MIC [2]: 10 to 100 µg/mL (≈ 20.1 to 201 µM) |
| CC(Oc1ccc(Oc2ncc(C(F)(F)F)cc2Cl)cc1)C(=O)C(C#N)c1c(F)cccc1F (centres unmarked) [compound 28] | – | – | – | MIC [1]: 10 to 100 µg/mL (≈ 20.1 to 201 µM) |
| CC(Oc1ccc(Oc2ccc([N+](=O)[O-])cc2F)cc1)C(=O)C(C#N)c1ccc(Cl)cc1Cl (centres unmarked) [compound 29] | – | – | – | MIC [1]: 10 to 100 µg/mL (≈ 20.4 to 204 µM); MIC [2]: 10 to 100 µg/mL (≈ 20.4 to 204 µM) |
| CCN(Cc1ccccc1)C(=O)C(C#N)C(=O)C(C)Oc1ccc(Oc2ncc(C(F)(F)F)cc2Cl)cc1 (centres unmarked) [compound 39] | – | – | – | MIC [2]: 10 to 100 µg/mL (≈ 18.3 to 183 µM) |
| CC(Oc1ccc(Oc2ncc(C(F)(F)F)cc2Cl)cc1)C(=O)C(C#N)C(=O)N1CCCc2ccccc21 (centres unmarked) [compound 40] | – | – | – | MIC [2]: 10 to 100 µg/mL (≈ 18.4 to 184 µM) |
| CC(Oc1cc(Oc2ccc(C(F)(F)F)cc2Cl)ccc1[N+](=O)[O-])C(=O)C(C#N)C(=O)N1CCCCC1 (centres unmarked) [compound 135] | 10 to 100 (≈ 18.5 to 185 µM) | – | – | MIC [3]: 10 to 100 µg/mL (≈ 18.5 to 185 µM); IC ([4]; Enterococcus Seriolicida HI): ≤100 (MIC-equivalent values obtained at the succesive 2-fold dilution of the sample are 100-10 µg/ml); IC ([4]; Enterococcus Seriolicida KG86050): ≤100 (MIC-equivalent values obtained at the succesive 2-fold dilution of the sample are 100-10 µg/ml); IC ([4]; Enterococcus Seriolicida MS89060): ≤100 (MIC-equivalent values obtained at the succesive 2-fold dilution of the sample are 100-10 µg/ml); IC ([4]; Enterococcus Seriolicida MS89064): ≤100 (MIC-equivalent values obtained at the succesive 2-fold dilution of the sample are 100-10 µg/ml); IC ([4]; Enterococcus Seriolicida MS89066): ≤100 (MIC-equivalent values obtained at the succesive 2-fold dilution of the sample are 100-10 µg/ml); IC ([4]; Enterococcus Seriolicida MS89068): ≤100 (MIC-equivalent values obtained at the succesive 2-fold dilution of the sample are 100-10 µg/ml); IC ([4]; Enterococcus Seriolicida SE94-001): ≤100 (MIC-equivalent values obtained at the succesive 2-fold dilution of the sample are 100-10 µg/ml); MIC ([4]; Enterococcus Seriolicida SE94-002): 10 to 100 µg/mL (≈ 18.5 to 185 µM); IC ([4]; Enterococcus Seriolicida SE94-003): ≤100 (MIC-equivalent values obtained at the succesive 2-fold dilution of the sample are 100-10 µg/ml); IC ([4]; Enterococcus Seriolicida SE94-004): ≤100 (MIC-equivalent values obtained at the succesive 2-fold dilution of the sample are 100-10 µg/ml); IC ([4]; Enterococcus Seriolicida SE94-005): ≤100 (MIC-equivalent values obtained at the succesive 2-fold dilution of the sample are 100-10 µg/ml) |
| CC(Oc1cc(Oc2ccc(C(F)(F)F)cc2Cl)ccc1[N+](=O)[O-])C(=O)C(C#N)C(=O)N1CCOCC1 (centres unmarked) [compound 137] | 10 to 100 (≈ 18.5 to 185 µM) | 10 to 100 (≈ 18.5 to 185 µM) | 10 to 100 (≈ 18.5 to 185 µM) | – |
| CC(Oc1cc(Oc2ccc(C(F)(F)F)cc2Cl)ccc1Cl)C(=O)C(C#N)c1ccc(Cl)cc1Cl (centres unmarked) [compound 151] | 10 to 100 (≈ 17.8 to 178 µM) | ≤ 1 | ≤ 1 | – |
| CC(Oc1cc(Oc2ccc(C(F)(F)F)cc2Cl)ccc1Cl)C(=O)C(C#N)c1ccc(Cl)c(Cl)c1 (centres unmarked) [compound 152] | 1 to 10 (≈ 1.78 to 17.8 µM) | ≤ 1 | ≤ 1 | – |
| CC(Oc1cc(Oc2ccc(C(F)(F)F)cc2Cl)ccc1Cl)C(=O)C(C#N)c1ccccc1 (centres unmarked) [compound 156] | 10 to 100 (≈ 20.2 to 202 µM) | – | 1 to 10 (≈ 2.02 to 20.2 µM) | – |
| CC(Oc1cc(Oc2ccc(C(F)(F)F)cc2Cl)ccc1Cl)C(=O)C(C#N)C(=O)N1CCCC1 (centres unmarked) [compound 169] | – | 10 to 100 (≈ 19.4 to 194 µM) | 10 to 100 (≈ 19.4 to 194 µM) | – |
| CC(Oc1cc(Oc2ccc(C(F)(F)F)cc2Cl)ccc1Cl)C(=O)C(C#N)C(=O)N1CCCCC1 (centres unmarked) [compound 170] | 10 to 100 (≈ 18.9 to 189 µM) | 1 to 10 (≈ 1.89 to 18.9 µM) | 1 to 10 (≈ 1.89 to 18.9 µM) | – |
| CC(Oc1cc(Oc2ccc(C(F)(F)F)cc2Cl)ccc1Cl)C(=O)C(C#N)C(=O)N1CCOCC1 (centres unmarked) [compound 172] | – | – | 10 to 100 (≈ 18.8 to 188 µM) | – |
| CC(Oc1cc(Oc2ccc(C(F)(F)F)cc2Cl)ccc1Cl)C(=O)C(C#N)C(=O)N(C)c1ccccc1 (centres unmarked) [compound 175] | – | – | 1 to 10 (≈ 1.81 to 18.1 µM) | – |
| CC(Oc1cccc(Oc2ccc(C(F)(F)F)cc2Cl)c1)C(=O)C(C#N)c1cccc(Cl)c1 (centres unmarked) [compound 207] | – | ≤ 1 | ≤ 1 | – |
| CC(Oc1cccc(Oc2ccc(C(F)(F)F)cc2Cl)c1)C(=O)C(C#N)C(=O)N1CCCCC1 (centres unmarked) [compound 208] | – | 1 to 10 (≈ 2.02 to 20.2 µM) | 1 to 10 (≈ 2.02 to 20.2 µM) | – |

Source: patent EP0768085A1, “ANTIBACTERIAL AGENT” (DAIICHI PHARMACEUTICAL CO., LTD., priority 1994, dated 1996)
